Laboratory results: patent US20240277772A1, “COMBINED ADMINISTRATION COMPOSITION FOR PREVENTING OR TREATING ATOPIC DERMATITIS, COMPRISING FUNCTION-ENHANCED STEM CELLS AND REGULATORY T CELLS” (SCM LIFESCIENCE CO., LTD., priority 2021, published 2024)

Tested on: mesenchymal stem cells
Experiment: qRT-PCR of IDO and TSG6 expression in mesenchymal stem cells treated with priming candidates
Type: cell-based
Conditions: for expression of IDO / expression of TSG6: Table 1 compositions, 24 hours, FIG. 4, compared to untreated control or to single substances; for lowest effective concentration capable of inducing significantly increased expression of both TSG6 and IDO: stem cells treated 24 hours, TNF-α and IFN-γ at 5, 10, 20 ng/ml, IFN-α at 10, 20, 40 ng/ml, FIGS. 1-3
Method: In a 37° C. and 5% CO2 incubator, mesenchymal stem cells in a storage state (LN2 tank storage) were thawed and cultured, and at this time, the cells were cultured in a medium (DMEM, alpha-MEM) containing 10% FBS or 4% hPL until proliferated to a cell confluence of about 80%. The cultured mesenchymal stem cells were seeded in a 100 mm dish and treated with candidate substances for enhancing the functions of the mesenchymal stem cells for 24 hours, and then the concentrations of primary candidate substances for enhancing the functions were set.
TNF-α, IFN-γ, and IFN-α were selected as the primary candidate substances, and in order to confirm the lowest effective concentration capable of increasing the expression of TNFα-stimulated gene-6 (TSG6) and indoleamine 2,3-dioxygenase (IDO) to confirm the enhanced functions, the stem cells were treated with 5, 10, and 20 ng/ml of TNF-α, 5, 10, and 20 ng/ml of IFN-γ, and 10, 20, and 40 ng/ml of IFN-α, respectively, and changes in expression of TSG6 and IDO were confirmed.
The IDO was known as an immunomodulatory factor that inhibited the proliferation of immune cells such as T cells by converting tryptophan, which was essential for T cell proliferation, into kynurenine, and the TSG6 was known as an anti-inflammatory regulator secreted from mesenchymal stem cells. After culturing the stem cells, total RNA was isolated using TRIzol (Invitrogen), and cDNA was synthesized from total RNA using PrimeScript™RT reagent Kit with gDNA Eraser (TaKaRa), and qRT-PCR was performed. The results of TSG6 and IDO according to the concentration of each candidate substance were illustrated in FIGS. 1, 2 and 3.
Through Example 1, in order to search for more function-enhanced compositions based on the candidate substances and lowest effective concentrations identified to induce the enhanced functions of stem cells, selected candidate substances and combined concentrations thereof were set as shown in Table 1. Mesenchymal stem cells were treated with the candidate combinations described in Table 1 below for 24 hours, and the stem cells were cultured as in Example 1, and then total RNA was isolated using TRIzol (Invitrogen). Thereafter, qRT-PCR was performed by synthesizing cDNA from total RNA using the PrimeScript™RT reagent Kit with gDNA Eraser (TaKaRa).
Vitamins were known to improve the proliferative ability of stem cells and maintain the stemness of stem cells when added during a stem cell culture process. Accordingly, various vitamins were treated in the stem cell culture process, and experiments were performed to confirm whether or not vitamins could achieve anti-inflammatory and immune function enhancing effects of stem cells. Specifically, the stem cells were treated with various types of vitamins shown in Table 2 below according to the method described in Example 1, and the results of confirming changes in expression of IDO and TSG6 according to treatment with each candidate substance were illustrated in FIG. 5.

| Substance | expression of IDO | expression of TSG6 | lowest effective concentration capable of inducing significantly increased expression of both TSG6 and IDO |
| --- | --- | --- | --- |
| IFN-α | increased expression | increased expression | 20 ng/mL |
| IFN-γ [priming factor for stem cells, 10 ng/ml] | increased expression | increased expression | 10 ng/mL |
| TNF-α | increased expression | increased expression | 10 ng/mL |
